The source of these data is patent US11802110B2, “2-amino-N-(arylsulfinyl)-acetamide compounds as inhibitors of bacterial aminoacyl-tRNA synthetase” (priority 2016, dated 2023).

≈ marks a conversion by molar mass, not a printed value. Bounds are passed on as bounds.

Data set [1] is described as follows: Human cell viability (cytotoxicity), ATP levels by CellTiter-Glo. The format is cell-based. To be noted: HepG2 cells (ATCC HB-8065), 24 hours incubation, read-out: IC50 (μg/mL), Cytotoxicity in HepG2 ATCC HB-8065 Cell Line. The protocol:
Compounds were assessed for potential non-specific cytotoxic effects against a human hepatic cell line (HepG2 ATCC HB-8065). 96-well plates were seeded with HepG2 cells in concentration of 15,000 cells per well in 100 μL of MEM growth media completed with 1% NEAA and 1% sodium pyruvate. Border wells were filled with 100 μL of sterile PBS. Two days upon cells incubation, the compounds were added. Compound dilutions were prepared in 96-well V-bottom plate in pure DMSO. Growth media from 5 plates were aspirated and replaced with 98.7 μL of fresh growth media. 1.28 μL of compounds prepared in V-bottom plates were transferred with multichannel pipette into test plates (78.1× dilution). Final DMSO concentration was 1.28% per well. In control wells, 1.28 μL of DMSO was added in 98.7 μL of media. Compounds were tested in duplicates. Cells were incubated with compounds for 24 hours when cell viability was assessed by measuring ATP levels. ATP levels were measured by adding 50 μL of CellTiter-Glo reagent to each well and after 5 minutes of incubation luminescence was measured with SpectraMax i3. The potential effect of tested compounds on cell viability was determined by comparing the signal obtained in presence of different concentrations of the compounds with those obtained in the presence of DMSO only. The potential effects were then calculated and presented as IC50 values (μg/mL).

The target of data set [2] is E. Coli LeuRS (Escherichia coli (strain K12), UniProt P07813). The experiment in a line: Study 2 - Isothermal titration calorimetry (ITC). The class given is binding. The note with it: 25° C., pH 7.5, mean ± SD. The protocol: Escherichia coli BL21(DE3) cells transformed with plasmid pQE-60 containing the open-reading frame sequence of one targeted aaRS (i.e., LeuRS) were induced with 1 mM IPTG (isopropyl β-D-1-thiogalactopyranoside) for 3 hours at 37° C. Bacterial cells were harvested and lysed with 20 mM HEPES (4-(2-hydroxyethyl)-1-piperazinylethane-sulfonic acid) (pH 7.5), 300 mM NaCl, 15 mM imidazole and 1 mM DTT (1,4-dithio-D-threitol). The pathogenic aaRS was first purified by nickel affinity standard chromatography. The eluted protein was concentrated and then further purified by gel filtration using 50 mM HEPES (pH 7.5), 150 mM NaCl buffer.
E. Coli LeuRS, sequence (P07813 whole entry): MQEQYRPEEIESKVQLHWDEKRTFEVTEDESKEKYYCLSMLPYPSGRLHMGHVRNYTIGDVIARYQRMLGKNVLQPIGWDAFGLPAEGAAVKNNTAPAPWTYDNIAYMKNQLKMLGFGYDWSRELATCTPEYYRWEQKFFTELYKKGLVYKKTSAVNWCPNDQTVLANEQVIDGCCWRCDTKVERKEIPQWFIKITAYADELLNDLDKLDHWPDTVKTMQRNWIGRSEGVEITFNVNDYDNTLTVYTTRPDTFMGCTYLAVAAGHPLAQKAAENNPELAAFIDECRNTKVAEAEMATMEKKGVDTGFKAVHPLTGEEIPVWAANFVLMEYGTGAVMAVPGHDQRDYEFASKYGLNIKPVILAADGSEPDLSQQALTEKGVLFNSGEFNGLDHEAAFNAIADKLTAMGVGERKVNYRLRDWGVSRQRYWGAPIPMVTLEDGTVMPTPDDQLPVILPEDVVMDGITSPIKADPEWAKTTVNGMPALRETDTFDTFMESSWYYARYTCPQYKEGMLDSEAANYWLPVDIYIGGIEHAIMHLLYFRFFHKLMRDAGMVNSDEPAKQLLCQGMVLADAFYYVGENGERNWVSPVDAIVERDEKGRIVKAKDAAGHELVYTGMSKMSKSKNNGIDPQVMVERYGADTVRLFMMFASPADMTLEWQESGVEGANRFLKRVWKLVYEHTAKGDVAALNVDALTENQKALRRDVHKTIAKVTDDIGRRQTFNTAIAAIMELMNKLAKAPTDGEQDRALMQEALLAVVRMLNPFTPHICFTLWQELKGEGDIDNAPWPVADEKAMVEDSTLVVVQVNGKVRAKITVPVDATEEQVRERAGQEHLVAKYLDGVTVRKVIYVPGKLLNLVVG
ITC studies were carried out using a Microcal ITC200 instrument (GE Healthcare). Protein concentration was determined by spectrophotometry by measuring the absorbance at 280 nm using a theoretical molar extinction coefficient of 169,140 M^−1cm^−1. Ligand stock solutions were prepared in DMSO at 62.5 mM concentration. The titrations were performed at 25° C. with 7.5-100 μM E. Coli LeuRS in 50 mM HEPES, 150 mM NaCl, pH 7.5 buffer containing 1% DMSO (v/v). The protein solution in the 280 μL sample cell was titrated with the inhibitor solution (diluted to 75-3000 μM in the same buffer as the protein) using 1-2 μL injections every 120-140 seconds. All titrations were repeated at least two times. To correct for heats of dilution and mixing, the final baseline consisting of small peaks of identical size at the end of each experiment was subtracted. The experimental data were fitted to a theoretical titration curve (one site model) using MicroCal Origin 7 SR4 software.
Note that Compounds R-4.1 and S-4.1 (in Table 15, below) correspond to Compounds V-i and V-ii (in Tables 13 and 14, above), respectively.
(In general: ITC needs no label: the signal is the heat of the interaction.)

Data set [3] concerns Acinetobacter baumannii B1931 clinical isolate. The experiment in a line: Study 4 - MIC by broth micro-dilution (CLSI). The note with it: Acinetobacter baumannii. The format is cell-based. The protocol:
(§1) Minimum Inhibitory Concentrations (MICs) were determined by the broth micro-dilution method performed according to Clinical Laboratory Standards Institute guidelines. For testing, 5 mg/mL DMSO solutions were prepared by dissolving solids in DMSO. Standard antibiotics were prepared according to CLSI guidelines as 5 mg/mL stock solutions. Upon DMSO stock solutions preparation, the working solutions in MH media were prepared by adding 38.4 μL of stock solution to 1461.6 μL of MH media. Out of these working solutions 100 μL were transferred to wells in the third column of 96-well assay plates. Assay plates were previously filled with 50 μL of MH media in all wells except for the wells in the third column. Upon compounds and antibiotics addition, 50 μL was transferred from the third to the fourth column, then from the fourth to the fifth and so on.
(§2) MIC value was determined by visual inspection of bacterial growth within 96-well plates. The first column in which there was no visible growth of bacteria was determined as MIC value for compound or antibiotic tested in that particular row. ATCC strains were used as reference strains for which there is a determined value of MIC values for standard antibiotics. The assay is considered valid when MIC values for standard antibiotics are within CLSI designated range for ATCC strain tested.
For orientation: In broth dilution the organism is exposed to a series of concentrations in liquid medium.

Data set [4] concerns Enterobacter cloacae B1966 clinical isolate. The experiment in a line: Study 4 - MIC by broth micro-dilution (CLSI). The note with it: Enterobacter cloacae. The format is cell-based. The protocol:
as §1, §2

The test system of data set [5] is Escherichia coli ATCC 25922. The experiment in a line: Study 4 - MIC by broth micro-dilution (CLSI). The class given is cell-based. The note with it: Escherichia coli, ATCC25922. The protocol:
as §1, §2

Data set [6] has as its system Haemophilus influenzae ATCC 49247. The experiment in a line: Study 4 - MIC by broth micro-dilution (CLSI). The class given is cell-based. To be noted: Haemophilus influenzae, ATCC49247; G = H. influenzae ATCC 49247; read-out: MIC. The protocol: as §1, §2
Data set [7] deals with Klebsiella pneumoniae ATCC 700603. The experiment in a line: Study 4 - MIC by broth micro-dilution (CLSI). The format is cell-based. To be noted: Klebsiella pneumoniae, ATCC700603. The protocol:
as §1, §2

Data set [8] concerns Pseudomonas aeruginosa ATCC 27853. In words: Study 4 - MIC by broth micro-dilution (CLSI). The class given is cell-based. The note with it: Pseudomonas aeruginosa, ATCC27853. The protocol:
as §1, §2

In the case of `CC(C)C[C@@H](N)C(=O)N[S+]([O-])c1ccccc1` (some centres unmarked) [4.6], in data set [1], the IC50 at 24 h is greater than 32 µg/mL.

For the molecule `CC(C)CC(N)C(=O)N[S+]([O-])c1ccc(C(C)(C)C)cc1` (centres unmarked) [4.28], in data set [1], the IC50 at 24 h is greater than 64 µg/mL.

For `CC(C)C(N)C(=O)N[S+]([O-])c1ccccc1` (centres unmarked) [4.5], in data set [1], the IC50 at 24 h was greater than 32 µg/mL.

Regarding `CC(C)CC(N)C(=O)N[S+]([O-])c1ccc2ccccc2c1` (centres unmarked) [4.40], the IC50 at 24 h in data set [1] was greater than 64 µg/mL.

As to `CCCC(N)C(=O)N[S+]([O-])c1ccccc1` (centres unmarked) [4.4], in data set [2], binding was characterised by a dissociation constant (Kd) of 0.159 ± 0.0294 µM, the ΔG was -38.8 ± 0.46 kJ/mol and the ΔH was -37.9 ± 1.17 kJ/mol. The IC50 at 24 h in data set [1] was greater than 64 µg/mL.

Turning to `Cc1cccc([S+]([O-])NC(=O)C(N)CC(C)C)c1` (centres unmarked) [4.13], the Kd – broadly, the equilibrium constant for the complex coming apart – in data set [2] was 0.00662 ± 0.00136 µM. In data set [2], this molecule displayed a ΔG of -46.69 ± 0.502 kJ/mol. This molecule also yielded a ΔH in data set [2] of -36.4 ± 4.56 kJ/mol. In addition, the MIC was 32 mg/L (≈ 119 µM) in data set [3]; 32 mg/L (≈ 119 µM) in data set [4]; 8 mg/L (≈ 29.8 µM) in data set [5]; 16 mg/L (≈ 59.6 µM) in data set [6]; 16 mg/L (≈ 59.6 µM) in data set [7]; greater than 64 mg/L in data set [8]. Besides, in data set [1], the IC50 at 24 h is greater than 64 µg/mL.

Consider `CC(C)CC(C)(N)C(=O)N[S+]([O-])c1ccccc1` (centres unmarked) [4.7], for which, in data set [2], the dissociation constant (Kd) turned out to be 1.82 ± 0.256 µM, the ΔG was -32.8 ± 0.38 kJ/mol and the ΔH is -6.95 ± 3.14 kJ/mol. Moreover, the IC50 at 24 h in data set [1] was greater than 64 µg/mL.

As to `CCC(C)C(N)C(=O)N[S+]([O-])c1ccccc1` (centres unmarked) [4.2], the IC50 at 24 h in data set [1] was greater than 32 µg/mL.

For the molecule `NC(C(=O)N[S+]([O-])c1ccccc1)c1ccccc1` (centres unmarked) [4.9], the IC50 at 24 h in data set [1] was greater than 64 µg/mL.

Turning to `COCc1cccc([S+]([O-])NC(=O)C(N)CC(C)C)c1` (centres unmarked) [4.23], in data set [2], binding was characterised by a dissociation constant (Kd) of 0.0175 ± 0.0011 µM, the ΔG is -44.27 ± 0.13 kJ/mol and the ΔH was -29.5 ± 3.14 kJ/mol.

Consider `CC(C)CC(N)C(=O)N[S+]([O-])c1cccc(F)c1` (centres unmarked) [4.11], for which the Kd in data set [2] turned out to be 0.00217 ± 8e-05 µM. In addition, in data set [2], the ΔG is -49.45 ± 0.17 kJ/mol. Besides, in data set [2], the ΔH is -67.86 ± 2.51 kJ/mol. Further, the MIC in data set [3] amounted to 8 mg/L (≈ 29.4 µM); in data set [4], 4 mg/L (≈ 14.7 µM); in data set [5], 1 mg/L (≈ 3.67 µM); in data set [6] it was 4 mg/L (≈ 14.7 µM); in data set [7] it was 2 mg/L (≈ 7.34 µM); in data set [8] it was 64 mg/L (≈ 235 µM). Besides, the IC50 at 24 h in data set [1] was greater than 64 µg/mL.

In the case of `CC(C)CC(N)C(=O)N[S+]([O-])c1cccs1` (centres unmarked) [4.41], in data set [1], the IC50 at 24 h is greater than 64 µg/mL.

`CC(C)CC(N)C(=O)N[S+]([O-])c1cccc2ccccc12` (centres unmarked) [4.39] came in with a Kd in data set [2] of 0.0128 ± 0.0016 µM. In addition, the ΔG in data set [2] was -45.06 ± 0.33 kJ/mol. Further, the ΔH in data set [2] is -38.9 ± 2.59 kJ/mol. Further, the MIC is 64 mg/L (≈ 210 µM) in data set [3]; 64 mg/L (≈ 210 µM) in data set [4]; 16 mg/L (≈ 52.6 µM) in data set [5]; 8 mg/L (≈ 26.3 µM) in data set [6]; 64 mg/L (≈ 210 µM) in data set [7]; greater than 64 mg/L in data set [8]. Also, the IC50 at 24 h in data set [1] turned out to be 46 µg/mL (≈ 151 µM).

Take `NC(Cc1ccccc1)C(=O)N[S+]([O-])c1ccccc1` (centres unmarked) [4.8]: the IC50 at 24 h in data set [1] is greater than 64 µg/mL.

Consider `Cc1ccc([S+]([O-])NC(=O)C(N)CC(C)C)c(F)c1` (centres unmarked) [4.38], for which the IC50 at 24 h in data set [1] was greater than 64 µg/mL.

As for `CSCCC(N)C(=O)N[S+]([O-])c1ccccc1` (centres unmarked) [4.3], the IC50 at 24 h in data set [1] was greater than 64 µg/mL.

Turning to `CC(C)CC(N)C(=O)N[S+]([O-])c1cccc(Cl)c1` (centres unmarked) [4.12], the MIC was 16 mg/L (≈ 55.4 µM) in data set [3]; 8 mg/L (≈ 27.7 µM) in data set [4]; 2 mg/L (≈ 6.93 µM) in data set [5]; 4 mg/L (≈ 13.9 µM) in data set [6]; 4 mg/L (≈ 13.9 µM) in data set [7]; 16 mg/L (≈ 55.4 µM) in data set [8]. The IC50 at 24 h in data set [1] is greater than 64 µg/mL.

With `CCC(N)C(=O)N[S+]([O-])c1cccc(F)c1` (centres unmarked) [4.10], the IC50 at 24 h in data set [1] was greater than 64 µg/mL.
